Experimental data reported in the NIST ThermoML archive (doi:10.1016/j.jct.2017.09.022).
± gives the expanded uncertainty stated by the source.

Settings: 101.33 kPa, Crystal, Small (less than 1 g) adiabatic calorimetry

C[C@@H](O)[C@H](N)C(=O)O [L-threonine]
molar entropy (5 K): 0.02162 ± 0.024 J/K/mol | molar entropy (10 K): 0.1746 ± 0.033 J/K/mol | molar entropy (15 K): 0.6735 ± 0.11 J/K/mol | molar entropy (20 K): 1.713 ± 0.25 J/K/mol | molar entropy (25 K): 3.326 ± 0.25 J/K/mol | molar entropy (30 K): 5.488 ± 0.5 J/K/mol | molar entropy (35 K): 8.065 ± 0.75 J/K/mol | molar entropy (40 K): 10.89 ± 1 J/K/mol | molar entropy (45 K): 13.89 ± 1.2 J/K/mol | molar entropy (50 K): 17.13 ± 1.5 J/K/mol | molar entropy (60 K): 23.7 ± 2.2 J/K/mol | molar entropy (70 K): 30.6 ± 1 J/K/mol | molar entropy (80 K): 37.33 ± 1.2 J/K/mol | molar entropy (90 K): 43.98 ± 1.6 J/K/mol | molar entropy (100 K): 50.55 ± 1.3 J/K/mol | molar entropy (110 K): 57.04 ± 1.4 J/K/mol | molar entropy (120 K): 63.44 ± 1.1 J/K/mol | molar entropy (130 K): 69.68 ± 1.2 J/K/mol | molar entropy (140 K): 75.91 ± 1.3 J/K/mol | molar entropy (150 K): 82.06 ± 1.5 J/K/mol | molar entropy (160 K): 88.05 ± 1.6 J/K/mol | molar entropy (170 K): 93.95 ± 1.6 J/K/mol | molar entropy (180 K): 99.86 ± 1.7 J/K/mol | molar entropy (190 K): 105.59 ± 1.8 J/K/mol | molar entropy (200 K): 111.33 ± 2 J/K/mol | molar entropy (210 K): 116.9 ± 2 J/K/mol | molar entropy (220 K): 122.47 ± 2.2 J/K/mol | molar entropy (230 K): 128.04 ± 2.2 J/K/mol | molar entropy (240 K): 133.45 ± 1.6 J/K/mol | molar entropy (250 K): 138.85 ± 1.7 J/K/mol | molar entropy (260 K): 144.26 ± 1.7 J/K/mol | molar entropy (270 K): 149.58 ± 1.8 J/K/mol | molar entropy (280 K): 154.82 ± 1.8 J/K/mol | molar entropy (290 K): 160.14 ± 2 J/K/mol | molar entropy (298.15 K): 164.38 ± 2 J/K/mol | molar entropy (300 K): 165.29 ± 2 J/K/mol | molar entropy (310 K): 170.53 ± 1.9 J/K/mol | molar entropy (320 K): 175.6 ± 1.9 J/K/mol | molar entropy (330 K): 180.67 ± 1.9 J/K/mol | molar entropy (340 K): 185.75 ± 2 J/K/mol | molar entropy (350 K): 190.73 ± 2 J/K/mol | molar entropy (360 K): 195.72 ± 2 J/K/mol | molar entropy (370 K): 200.71 ± 2.2 J/K/mol
